This passage reports MIC results from patent US20110091872A1, “DETECTING TRIAZOLE RESISTANCE IN ASPERGILLUS” (priority 2007, published 2011).

The MIC is the least concentration at which growth counts as inhibited.

Test [1] has as its system wild type recipient strain transformed with mutant AzRF1. Description: NCCLS M38-A microdilution MIC, transformants carrying mutant TF AzRF1. The format is cell-based. Conditions: Aspergillus fumigatus, 48 h. As to the method:
(§1) The eight putative C6 transcription factors (TFs) were amplified from a well-characterized itraconazole-resistant strain known to over-express ABC transporters. Nascimento et al. Antimicrob. Agents Chemother. (2003) 47:1719-26. The putative mutant TFs were introduced into a wild type recipient strain and transformants screened for resistance to 10 μg/mlitraconazole. Minimum inhibition concentrations (MICs) were determined by the National Committee for Clinical Laboratory Standards (NCCLS) M38-A microdilution method in RPMI 1640 medium in the presence of 0.01 to 16.0 μg/ml after 48 hours of growth at 37° C.
AzRF1 is a C6 transcription factor that is closely related to Tac1 of C. albicans with 35% sequence identity to the Tac1 proteins (GeneBank accession number ABD85289.1).
In general terms: In broth dilution the organism is exposed to a series of concentrations in liquid medium.

In test [2] the test system is AzRF1-R (derived from AzRF1-A after plasmid eviction). Put plainly: NCCLS M38-A microdilution MIC, strain AzRF1-R. The format is cell-based. Conditions: Aspergillus fumigatus, 48 h. The procedure: as §1
(§2) Plasmid pRG3-AMA1-AzRF1 was transformed into the triazole susceptible Ku80 strain. The derived mutant AzRF1-A, containing the mutant AzRF1 in an autonomous replicating plasmid was also resistant to triazole drugs (table 2). […] Strain AzRF1-R had restored sensitivity to triazole drugs (table 2).

Test [3] relates to KU80 DELTA (triazole susceptible Ku80 strain). Description: NCCLS M38-A microdilution MIC, parent strain KU80 DELTA. The note with it: Aspergillus fumigatus, 48 h. Type of test: cell-based. As to the method: as §1, §2
The test system of test [4] is AzRF1-H (homologous recombinant AzRF1-mutant of KU80). Description: NCCLS M38-A microdilution MIC, mutant AzRF1-H. Type of test: cell-based. Conditions: Aspergillus fumigatus; strain AzRF1-H; RPMI 1640, 48 hours, 37° C. As to the method:
as §1

In test [5] the test system is AzRF1-M (homologous recombinant AzRF1-mutant of ATCC 13073). Put plainly: NCCLS M38-A microdilution MIC, mutant AzRF1-M. The format is cell-based, Aspergillus fumigatus. Conditions: strain AzRF1-M, RPMI 1640, 48 hours, 37° C. As to the method:
as §1, §2

Test [6] concerns A. fumigatus wild type strain ATCC 13073. Description: NCCLS M38-A microdilution MIC, parent strain ATCC 13073. Conditions: Aspergillus fumigatus, ATCC13073, RPMI 1640, 48 hours, 37° C. Type of test: cell-based. As to the method: as §1
Test [7] deals with AzRF1-A (KU80 with mutant AzRF1 in autonomously replicating plasmid pRG3-AMA1-AzRF1). Put plainly: NCCLS M38-A microdilution MIC, mutant AzRF1-A. Type of test: cell-based. Conditions: Aspergillus fumigatus; strain AzRF1-A; RPMI 1640, 48 hours, 37° C. As to the method:
as §1, §2

Where [8] appears, read: Aspergillus fumigatus, ATCC13073, read-out: MIC.

In brackets after ≈: the same amount, converted by molar mass. Where two headings read alike, the source gives them in different places. Where only a bound is given, the exact number is not on record here.

For the molecule `CCC(C)n1ncn(-c2ccc(N3CCN(c4ccc(OCC5COC(Cn6cncn6)(c6ccc(Cl)cc6Cl)O5)cc4)CC3)cc2)c1=O` (stereo not shown) [ITRACONAZOLE, itraconazole], the MIC in test [1] was over 16 µg/mL; in test [2], over 16 µg/mL; in test [3], 0.25 µg/mL (≈ 0.354 µM); in test [4], over 16 µg/mL; in test [5] (setting [8]) it was over 16 µg/mL; in test [5], over 16.0 µg/mL. Also, the MIC is 0.25 µg/mL (≈ 0.354 µM) in test [6] and over 16 µg/mL in test [7].

Take `C[C@@H](c1ncncc1F)[C@](O)(Cn1cncn1)c1ccc(F)cc1F` [VORICONAZOLE, voriconazole]: the MIC is over 8 µg/mL in test [1]; over 8 µg/mL in test [2]; 0.06 µg/mL (≈ 0.172 µM) in test [3]; over 8 µg/mL in test [4]; over 8 µg/mL in test [5] (setting [8]); over 8.0 µg/mL in test [5]. Further, the MIC in test [6] is 0.06 µg/mL (≈ 0.172 µM); in test [7] it was over 8 µg/mL.
